{
  "source": "patent US11639352B2",
  "about": "“Benzothiazole compounds for the treatment of autoimmune diseases” (Hoffmann-La Roche Inc., priority 2018, dated 2023)",
  "data": [
    {"biological_target": "T1, human TLR9 (Homo sapiens, UniProt Q9NR96)", "T1 sequence (Q9NR96 26-1032)": "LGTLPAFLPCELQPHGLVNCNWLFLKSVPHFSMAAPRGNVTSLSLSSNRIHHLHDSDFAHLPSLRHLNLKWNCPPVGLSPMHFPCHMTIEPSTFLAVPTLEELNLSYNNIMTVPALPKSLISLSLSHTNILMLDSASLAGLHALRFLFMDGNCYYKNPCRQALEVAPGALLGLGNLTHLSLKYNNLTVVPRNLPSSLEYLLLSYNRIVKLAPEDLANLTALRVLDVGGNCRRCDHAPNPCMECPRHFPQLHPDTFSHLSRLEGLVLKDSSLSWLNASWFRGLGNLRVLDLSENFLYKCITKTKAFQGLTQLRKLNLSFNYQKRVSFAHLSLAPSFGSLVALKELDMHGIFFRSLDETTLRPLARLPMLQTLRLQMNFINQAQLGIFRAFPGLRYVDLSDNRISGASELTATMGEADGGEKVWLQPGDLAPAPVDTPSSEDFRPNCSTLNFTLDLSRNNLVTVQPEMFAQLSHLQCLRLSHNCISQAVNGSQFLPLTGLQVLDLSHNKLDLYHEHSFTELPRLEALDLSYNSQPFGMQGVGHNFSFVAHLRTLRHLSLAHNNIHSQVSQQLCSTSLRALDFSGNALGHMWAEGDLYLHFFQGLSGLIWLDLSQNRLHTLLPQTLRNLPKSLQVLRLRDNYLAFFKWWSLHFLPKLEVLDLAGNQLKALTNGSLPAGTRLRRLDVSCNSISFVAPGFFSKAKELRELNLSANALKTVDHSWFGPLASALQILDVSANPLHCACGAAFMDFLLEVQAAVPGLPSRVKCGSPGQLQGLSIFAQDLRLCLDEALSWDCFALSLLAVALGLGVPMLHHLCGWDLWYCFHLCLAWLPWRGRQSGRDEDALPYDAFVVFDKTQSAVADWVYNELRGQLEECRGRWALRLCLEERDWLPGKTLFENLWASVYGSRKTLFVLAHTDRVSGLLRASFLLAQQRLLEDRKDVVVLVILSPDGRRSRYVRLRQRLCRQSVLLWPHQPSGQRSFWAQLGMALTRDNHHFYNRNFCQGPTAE", "experiment": "HEK293-Blue-hTLR-9 cells assay (SEAP reporter, ODN2006 stimulation)", "type": "cell-based", "details": "HEK293-Blue-hTLR9 cells, ODN2006 ligand, 20 hrs incubation, antagonist", "method": "The following tests were carried out in order to determine the activity of the compounds of formula (I) in HEK293-Blue-hTLR-7/8/9 cells assay.\nHEK293-Blue-hTLR-9 Cells Assay:\nA stable HEK293-Blue-hTLR-9 cell line was purchased from InvivoGen (Cat. #: hkb-htlr9, San Diego, Calif., USA). These cells were originally designed for studying the stimulation of human TLR9 by monitoring the activation of NF-κB. A SEAP (secreted embryonic alkaline phosphatase) reporter gene was placed under the control of the IFN-β minimal promoter fused to five NF-κB and AP-1-binding sites. The SEAP was induced by activating NF-κB and AP-1 via stimulating HEK-Blue hTLR9 cells with TLR9 ligands. Therefore the reporter expression was declined by TLR9 antagonist under the stimulation of a ligand, such as ODN2006 (Cat. #: tlrl-2006-1, Invivogen, San Diego, Calif., USA), for incubation of 20 hrs. The cell culture supernatant SEAP reporter activity was determined using QUANTI-Blue™ kit (Cat. #: rep-qb1, Invivogen, San Diego, Calif., USA) at a wavelength of 640 nm, a detection medium that turns purple or blue in the presence of alkaline phosphatase.\nHEK293-Blue-hTLR9 cells were incubated at a density of […] cells/mL in a volume of 170 μL in a 96-well plate in Dulbecco's Modified Eagle's medium (DMEM) containing 4.5 g/L glucose, 50 U/mL penicillin, […], 2 mM L-glutamine, 10% (v/v) heat-inactivated fetal bovine serum with addition of 20 μL test compound in a serial dilution in the presence of final DMSO at 1% and 10 μL of 20 uM ODN2006 in above DMEM, perform incubation under 37° C. in a CO2 incubator for 20 hrs. Then 20 μL of the supernatant from each well was incubated with 180 μL Quanti-blue substrate solution at 37° C. for 2 hrs and the absorbance was read at 620˜655 nm using a spectrophotometer. The signalling pathway that TLR9 activation leads to downstream NF-κB activation has been widely accepted, and therefore similar reporter assay was modified for evaluating TLR9 antagonist.", "units": {"IC50": "nM"}, "values": [
      {"smiles": "C[C@@H]1CN(c2ccc(C#N)c3ncsc23)C[C@H](CN2[C@@H]3CC[C@H]2C[C@H](N)C3)O1", "note": "[Example 9, Exo-7-[(2S,6R)-2-[[(1S,5R)-3-amino-8-azabicyclo[3.2.1]octan-8-yl]methyl]-6-methyl-morpholin-4-yl]-1,3-benzothiazole-4-carbonitrile]", "IC50": 65},
      {"smiles": "C[C@@H]1CN(c2ccc(C#N)c3ncsc23)C[C@H](CN2[C@@H]3CC[C@H]2C[C@@H](N)C3)O1", "note": "[Example 8, Endo-7-[(2S,6R)-2-[[(1R,5S)-3-amino-8-azabicyclo[3.2.1]octan-8-yl]methyl]-6-methyl-morpholin-4-yl]-1,3-benzothiazole-4-carbonitrile]", "IC50": 109},
      {"smiles": "C[C@@H]1CN(c2ccc(C#N)c3ncsc23)C[C@H](CN2CCC3(CCCN(C)C3)CC2)O1", "note": "[Example 10, 7-[(2R,6S)-2-methyl-6-[(2-methyl-2,9-diazaspiro[5.5]undecan-9-yl)methyl]morpholin-4-yl]-1,3-benzothiazole-4-carbonitrile]", "IC50": 77},
      {"smiles": "C[C@@H]1CN(c2ccc(C#N)c3ncsc23)C[C@H](CN2CCC3(CCCNC3)CC2)O1", "note": "[Example 3, 7-[(2S,6R)-2-(2,9-diazaspiro[5.5]undecan-9-ylmethyl)-6-methyl-morpholin-4-yl]-1,3-benzothiazole-4-carbonitrile]", "IC50": 77},
      {"smiles": "C[C@@H]1CN(c2ccc(C#N)c3ncsc23)C[C@H](CN2CCC3(CCNC3)CC2)O1", "note": "[Example 6, 7-[(2S,6R)-2-(2,8-diazaspiro[4.5]decan-8-ylmethyl)-6-methyl-morpholin-4-yl]-1,3-benzothiazole-4-carbonitrile]", "IC50": 98},
      {"smiles": "C[C@@H]1CN(c2ccc(C#N)c3ncsc23)C[C@H](C(=O)NC2CCN(C)CC2)O1", "note": "[Example 11, (2R,6R)-4-(4-cyano-1,3-benzothiazol-7-yl)-6-methyl-N-(1-methyl-4-piperidyl)morpholine-2-carboxamide]", "IC50": 17500},
      {"smiles": "C[C@@H]1CN(c2ccc(C#N)c3ncsc23)C[C@H](CN2CCC(N3CCCCC3)CC2)O1", "note": "[Example 7, 7-[(2R,6S)-2-methyl-6-[[4-(1-piperidyl)-1-piperidyl]methyl]morpholin-4-yl]-1,3-benzothiazole-4-carbonitrile]", "IC50": 118},
      {"smiles": "C[C@@H]1CN(c2ccc(C#N)c3ncsc23)C[C@H](CN2CCC3(CCCNC3)C2)O1", "note": "(stereo partly drawn) [Example 1, 7-[(2S,6R)-2-(2,9-diazaspiro[4.5]decan-2-ylmethyl)-6-methyl-morpholin-4-yl]-1,3-benzothiazole-4-carbonitrile]", "IC50": 87},
      {"smiles": "C[C@@H]1CN(c2ccc(C#N)c3ncsc23)C[C@H](CN2CCC(N)CC2)O1", "note": "[Example 2, 7-[(2S,6R)-2-[(4-amino-1-piperidyl)methyl]-6-methyl-morpholin-4-yl]-1,3-benzothiazole-4-carbonitrile]", "IC50": 300},
      {"smiles": "C[C@@H]1CN(c2ccc(C#N)c3ncsc23)C[C@H](CN2CCC3(CCNCC3)CC2)O1", "note": "[Example 5, 7-[(2S,6R)-2-(3,9-diazaspiro[5.5]undecan-3-ylmethyl)-6-methyl-morpholin-4-yl]-1,3-benzothiazole-4-carbonitrile]", "IC50": 145},
      {"smiles": "C[C@@H]1CN(c2ccc(C#N)c3ncsc23)C[C@H](CN2CC3(CCCNC3)C2)O1", "note": "[Example 4, 7-[(2S,6R)-2-(2,8-diazaspiro[3.5]nonan-2-ylmethyl)-6-methyl-morpholin-4-yl]-1,3-benzothiazole-4-carbonitrile]", "IC50": 101},
      {"smiles": "C[C@@H]1CN(c2ccc(C#N)c3ncsc23)C[C@H](C(=O)NCC2CN(C)CCO2)O1", "note": "(stereo partly drawn) [Example 12, (2R,6R)-4-(4-cyano-1,3-benzothiazol-7-yl)-6-methyl-N-[(4-methylmorpholin-2-yl)methyl]morpholine-2-carboxamide]", "IC50": 36800}
    ]}
  ]
}
